Experiment [1] has as its target T1, NTCP M290T/I291V (NTCP→mAsbt) (Homo sapiens, UniProt Q14973, I291V/M290T).
T1 construct: stably transfected with the full open reading frames of human NTCP, ASBT, SOAT, OATP1B1, OATP1B3, OATP2B1, and murine Asbt (mAsbt); expressed in transfected cells; host or cells: HEK293, stably transfected
T1 sequence (Q14973 1-349 M290T/I291V): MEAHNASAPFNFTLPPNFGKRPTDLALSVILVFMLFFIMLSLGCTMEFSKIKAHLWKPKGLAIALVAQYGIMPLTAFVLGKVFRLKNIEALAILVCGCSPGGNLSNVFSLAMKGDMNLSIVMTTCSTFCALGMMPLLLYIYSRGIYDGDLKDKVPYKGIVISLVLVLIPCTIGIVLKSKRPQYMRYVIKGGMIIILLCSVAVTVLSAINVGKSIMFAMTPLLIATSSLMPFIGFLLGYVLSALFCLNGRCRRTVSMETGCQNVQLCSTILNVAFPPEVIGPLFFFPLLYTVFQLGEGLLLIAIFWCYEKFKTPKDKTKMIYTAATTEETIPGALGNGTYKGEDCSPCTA
The experiment in a line: [3H]TC transport and inhibition assay, NTCP→mAsbt mutant in HEK293 cells. Format: cell-based. Conditions: 1 μM [3H]TC, 10 min. The protocol: Amplification was performed on a peqSTAR XS PEQLAB PCR cycler (Peqlab) with Pfu DNA polymerase (M774A; Promega) in 18 cycles under the following conditions: initial denaturation for 2 min at 95°C, denaturation for 30 s at 95°C, annealing for 1 min at 55°C, extension for 8 min and 30 s at 72°C, final elongation for 10 min at 72°C and final hold at 4°C. After amplification, the products were digested with DpnI (ER1701; Thermo Fisher Scientific) for 1 h at 37°C and transformed into TOP10 chemically competent E. coli (Thermo Fisher Scientific). Plasmids were isolated using a GeneJET Plasmid Miniprep Kit (Thermo Fisher Scientific) according to the manufacturer's protocol, and the generated point mutations were verified by DNA sequencing (Seqlab Microsynth).
(§1) Cells were seeded onto poly-L-lysine-coated 96-well plates, induced with 1 μg/ml tetracycline, and grown to confluence over 72 h at 37°C. Then, cells were washed with tempered (37°C) phosphate-buffered saline (PBS, containing 137.0 mM NaCl, 2.7 mM KCl, 1.5 mM KH2PO4, and 7.3 mM Na2HPO4, at pH 7.4) and preincubated with 80 μl sodium transport buffer (STB, containing 142.9 mM NaCl, 4.7 mM KCl, 1.2 mM MgSO4, 1.2 mM KH2PO4, 1.8 mM CaCl2, and 20.0 mM HEPES, at pH 7.4) for 5 min at 37°C. For inhibition studies, the medium was replaced by 80 μl STB containing the respective inhibitor or solvent alone and cells were further incubated for 5 min at 37°C. Transport experiments were started by adding 20 μl of a 5-fold concentrated substrate solution (solved in STB). For transport experiments under sodium-free conditions the same buffer composition was used as for STB, but sodium chloride was substituted with equimolar concentrations of choline chloride as previously reported ([20], [24]). Transport experiments were stopped by washing twice with ice-cold PBS and the plates were kept cool on ice until adding the lysis buffer [1% sodium dodecyl sulfate (SDS) and 1 N NaOH]. Then, the cell-associated radioactivity of the respective tritium-labeled substrate or ligand was quantified by liquid scintillation counting using MicroScint-20 scintillation cocktail (Revvity) in a Packard Microplate Scintillation Counter TopCount NXT (Packard Instrument Company). For IC50 transport inhibition measurements, the mean uptake values measured in non-carrier-expressing HEK293 control cells were defined as 0% uptake control and were subtracted from all other values. Values from cells without inhibitor and solvent alone were set to 100%. Finally, all net transport data were expressed as uptake or binding as % of control. All transport or inhibition graphs were generated with GraphPad Prism 6 (GraphPad). Determination of half maximal inhibitory concentrations (IC50) was done by nonlinear regression analysis using the equation log (inhibitor) versus response—variable slope settings. All data points of the IC50 curves represent means ± SD of quadruplicate determinations. For Km measurements, BS uptake in the absence of sodium was regarded as carrier-independent unspecific uptake and was subtracted from the transport rates in the presence of sodium to obtain carrier-specific uptake rates (indicated as dashed lines). From the specific uptake rates, Michaelis Menten Km values were calculated by non-linear regression analysis.

Experiment [2] has as its target T2, OATP1B1 (Homo sapiens, UniProt Q9Y6L6).
T2 construct: stably transfected with the full open reading frames of human NTCP, ASBT, SOAT, OATP1B1, OATP1B3, OATP2B1, and murine Asbt (mAsbt); expressed in transfected cells; host or cells: HEK293, stably transfected (OATP1B1-HEK), tetracycline-induced
T2 sequence (Q9Y6L6 1-691): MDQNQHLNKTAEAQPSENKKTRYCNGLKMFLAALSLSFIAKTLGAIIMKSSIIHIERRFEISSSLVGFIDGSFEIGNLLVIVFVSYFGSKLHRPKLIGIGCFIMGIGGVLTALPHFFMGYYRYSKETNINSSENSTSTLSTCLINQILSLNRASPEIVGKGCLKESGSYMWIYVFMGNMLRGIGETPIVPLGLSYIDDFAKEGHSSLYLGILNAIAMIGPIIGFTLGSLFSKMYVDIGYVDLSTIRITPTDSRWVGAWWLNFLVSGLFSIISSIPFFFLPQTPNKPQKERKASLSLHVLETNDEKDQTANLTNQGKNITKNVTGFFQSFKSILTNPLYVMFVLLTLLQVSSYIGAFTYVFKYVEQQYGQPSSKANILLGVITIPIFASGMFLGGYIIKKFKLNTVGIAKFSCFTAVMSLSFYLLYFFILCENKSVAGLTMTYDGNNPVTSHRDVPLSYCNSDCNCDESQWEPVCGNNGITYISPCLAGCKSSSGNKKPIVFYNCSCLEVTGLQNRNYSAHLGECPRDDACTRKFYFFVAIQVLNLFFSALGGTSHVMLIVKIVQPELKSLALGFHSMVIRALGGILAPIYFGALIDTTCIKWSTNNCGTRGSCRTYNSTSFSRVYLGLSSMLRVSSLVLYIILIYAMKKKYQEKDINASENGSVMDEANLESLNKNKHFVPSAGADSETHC
The experiment can be described thus: [3H]E1S transport inhibition assay in OATP1B1-HEK293 cells. Type of experiment: cell-based. Conditions: 200 nM [3H]E1S, 10 min; two independent experiments.
From the text: Human embryonic kidney HEK293 cells, stably transfected with the full open reading frames of human NTCP, ASBT, SOAT, OATP1B1, OATP1B3, OATP2B1, and murine Asbt (mAsbt) were used as reported ([18], [20], [21], [22], [23]). The NTCP, ASBT, and mAsbt constructs were C-terminally tagged with the FLAG epitope, and the SOAT construct was C-terminally tagged with green fluorescent protein. Non-transfected Flp-In HEK293 cells (Thermo Fisher Scientific) served as the control. All cell lines were maintained at 37°C, 5% CO2 and 95% humidity in DMEM/F-12 medium (Thermo Fisher Scientific) supplemented with 10% fetal calf serum (Sigma-Aldrich), 4 mM L-glutamine (PAA) and penicillin/streptomycin (PAA). Expression of the respective carrier protein was induced by tetracycline treatment at 1 μg/ml (Carl Roth GmbH + Co. KG).
as §1

“And” between values parts separate entries of the source, which are not always exact repeats. Identical values can stand only once.

Turning to `CCCCC1(CCCC)CS(=O)(=O)c2ccc(N(C)C)cc2[C@@H](c2ccc(OCCCC[N+]34CCN(CC3)CC4)cc2)[C@H]1O` [SC-435], the “Inhibition curves and AUC of NTCP→mAsbt mutant compared to wild-type NTCP” value in experiment [1] was “still inactive”. In experiment [2], the concentration for half-maximal inhibition (IC50) is > 10 µM and 41.3 µM and 30.7 µM.
Regarding `CCCCC1(CCCC)CN(c2ccccc2)c2cc(SC)c(OCC(=O)N[C@@H](C(=O)NCC(=O)O)c3ccccc3)cc2S(=O)(=O)C1` [elobixibat], in experiment [1], the “Inhibition curves and AUC of NTCP→mAsbt mutant compared to wild-type NTCP” value is listed as “did not significantly change”. The IC50 in experiment [2] is 4.5 µM and 4.4 µM.
For the compound `CCCC[C@]1(CC)CS(=O)(=O)c2cc(CNC(CC(=O)O)CC(=O)O)c(OC)cc2[C@@H](c2ccccc2)N1` [linerixibat], in experiment [1], the “Inhibition curves and AUC of NTCP→mAsbt mutant compared to wild-type NTCP” value is “still inactive”. The IC50 in experiment [2] is > 10 µM and 29.1 µM and 12 µM.
For `CCCCC1(CCCC)CS(=O)(=O)c2ccc(N(C)C)cc2[C@@H](c2ccc(OCc3ccc(C[N+]45CCN(CC4)CC5)cc3)cc2)[C@H]1O` [maralixibat], the “Inhibition curves and AUC of NTCP→mAsbt mutant compared to wild-type NTCP” value in experiment [1] is reported as “did not significantly change”. The IC50 in experiment [2] was 9 µM and 8.3 µM.
As for `CCCCC1(CCCC)CN(c2ccccc2)c2cc(SC)c(OCC(=O)N[C@@H](C(=O)N[C@@H](CC)C(=O)O)c3ccc(O)cc3)cc2S(=O)(=O)N1` [odevixibat], the “Inhibition curves and AUC of NTCP→mAsbt mutant compared to wild-type NTCP” value in experiment [1] was “did not significantly change”. Moreover, in experiment [2], the IC50 is 4 µM and 1.6 µM.

Values taken from PMC12596218 (Journal of Lipid Research, 2025).
